Data taken from patent US20100113438A1, “CLASS OF HISTONE DEACETYLASE INHIBITORS” (DAC S.R.L., priority 2006, published 2010).

Legend:
[1] = Metabolic stability in hepatic microsomes (mouse); assay type: in vitro ADME; conditions: mouse hepatic microsomes 0.5 mg/ml, compound 1 μM, 37° C., pH 7.4, 30 min
Experimental: (§1) The test compound was dissolved in DMSO at the final concentration of 1 μM and pre-incubated for 10 min at 37° C. in potassium phosphate buffer pH 7.4 together with mouse or human hepatic microsomes (Xenotech) at the final concentration of 0.5 mg/ml.
(§2) After the pre-incubation the reaction was started by adding the cofactor mixture (NADP, G6P, G6P-DH); aliquots were taken at time 0 and 30 min, added to acetonitrile in order to stop the reaction. After centrifugation the supernatant was separated and analyzed by LC-MS/MS.
(§3) A control sample without cofactor was always studied in parallel in order to check the chemical stability of the test compound.
(§4) Two reference compounds of known metabolic stability 7-ethoxycoumarin and propranolol were present each time to access the validity of the experiment.
(§5) A fixed concentration of verapamil was added in each sample as internal standard for the LC-MS/MS analysis.
(§6) The percentage of the compound remaining after 30 min incubation period was calculated according the following equation: [area at time 30 min]/[area at time 0 min]*100%.

[2] = Metabolic stability in hepatic microsomes (human); assay type: in vitro ADME; conditions: human hepatic microsomes 0.5 mg/ml, compound 1 μM, 37° C., pH 7.4, 30 min
Experimental: as §1, §2, §3, §4, §5, §6

[3] = tested on: HDAC (nuclear extract of HeLa cells); experiment: Assay of enzyme inhibition of HDAC (BIOMOL Kit); assay type: biochemical; conditions: substrate 116 μM
Experimental: The in-vitro activity of HDAC inhibitors was assayed by means of a biochemical assay using a BIOMOL Kit, according to the recommended experimental conditions. […] The samples were incubated for 10 minutes at room temperature and then exposed to a developer (15 minutes at room temperature). In this last step a fluorophore was produced, whose fluorescence was measured using an excitation wavelength of 355 nm and an emission at 460 nm.

Row | Met. mouse (percentage of the compound remaining after 30 min incubation) [1] [%] | Met. human (percentage of the compound remaining after 30 min incubation) [2] [%] | IC50 [3] [µM] | SMILES
1 | 33.81 | 38.16 |  | CN1CCN(c2ccccc2C(=O)/C=C/c2ccc(/C=C/C(=O)NO)cc2)CC1 [Example 1, (E)-N-Hydroxy-3-(4-{(E)-3-[2-(4-methyl-piperazin-1-yl)-phenyl]-3-oxo-propenyl}-phenyl)-acrylamide]
2 | 14.00 | 41.88 |  | CN(C)C1CCN(c2ccc(C(=O)/C=C/c3ccc(/C=C/C(=O)NO)cc3)cc2)CC1 [Example 4, (E)-3-(4-{(E)-3-[4-(4-Dimethylamino-piperidin-1-yl)-phenyl]-3-oxo-propenyl}-phenyl)-N-hydroxy-acrylamide]
3 | 16.75 | 61.16 |  | CN1CCN(Cc2ccc(C(=O)/C=C/c3ccc(/C=C/C(=O)NO)cc3)cc2)CC1 [Example 7, (E)-N-Hydroxy-3-(4-{(E)-3-[4-(4-methyl-piperazin-1-yl-methyl)-phenyl]-3-oxo-propenyl}-phenyl)-acrylamide]
4 | 30.5 | 42.58 |  | O=C(/C=C/c1ccc(/C=C/C(=O)c2ccc(N3CCNCC3)cc2)cc1)NO [Example 15, (E)-N-Hydroxy-3-{4-[(E)-3-(4-piperazin-1-yl-phenyl)-3-oxo-propenyl]-phenyl}-acrylamide]
5 | 84.89 | 57.28 | 0.035 | CN1CCN(c2cc(Cl)cc(C(=O)/C=C/c3ccc(/C=C/C(=O)NO)cc3)c2)CC1 [Example 25, (E)-3-(4-{(E)-3-[3-Chloro-5-(4-methyl-piperazin-1-yl)-phenyl]-3-oxo-propenyl}-phenyl)-N-hydroxy-acrylamide]
6 | 42.41 | 50.84 |  | O=C(/C=C/c1ccc(/C=C/C(=O)c2ccc(CN3CCNCC3)cc2)cc1)NO [Example 26, (E)-N-Hydroxy-3-{4-[(E)-3-oxo-3-(4-piperazin-1-ylmethyl-phenyl)-propenyl]-phenyl}-acrylamide]
7 |  |  | 0.025 | CC(=O)N1CCN(Cc2ccc(C(=O)/C=C/c3ccc(/C=C/C(=O)NO)cc3)cc2)CC1 [Example 30, (E)-3-(4-{(E)-3-[4-(4-Acetyl-piperazin-1-ylmethyl)-phenyl]-3-oxo-propenyl}-phenyl)-N-hydroxy-acrylamide]
8 | 20.29 | 44.35 | 0.0061 | C[C@@H]1CN(c2ccc(C(=O)/C=C/c3ccc(/C=C/C(=O)NO)nc3)cc2)C[C@H](C)N1C [Example 39, (E)-N-Hydroxy-3-(5-{(E)-3-oxo-3-[4-((3R,5S)-3,4,5-trimethyl-piperazin-1-yl)-phenyl]-propenyl}-pyridin-2-yl)-acrylamide]
9 | 50.47 | 35.27 | 0.0048 | CC(=O)N1CCN(c2ccc(C(=O)/C=C/c3ccc(/C=C/C(=O)NO)nc3)cc2)CC1 [Example 42, (E)-3-(5-{(E)-3-[4-(4-Acetyl-piperazin-1-yl)-phenyl]-3-oxo-propenyl}-pyridin-2-yl)-N-hydroxy-acrylamide]
10 | 42.45 | 37.29 | 0.004 | C[C@@H]1CN(c2cccc(C(=O)/C=C/c3ccc(/C=C/C(=O)NO)nc3)c2)C[C@H](C)N1C [Example 43, (E)-N-Hydroxy-3-(5-{(E)-3-oxo-3-[3-((3R,5S)-3,4,5-trimethyl-piperazin-1-yl)-phenyl]-propenyl}-pyridin-2-yl)-acrylamide]
11 | 54.56 | 34.38 | 0.0013 | CN1CCC(Cc2ccc(C(=O)/C=C/c3ccc(/C=C/C(=O)NO)nc3)cc2)CC1 [Example 44, (E)-N-Hydroxy-3-(5-{(E)-3-[4-(1-methyl-piperidin-4-ylmethyl)-phenyl]-3-oxo-propenyl}-pyridin-2-yl)-acrylamide]
12 | 43.41 | 53.65 | 0.0007 | O=C(/C=C/c1ccc(/C=C/C(=O)c2ccc(N3CCNCC3)cc2)cn1)NO [Example 45, (E)-N-Hydroxy-3-{5-[(E)-3-oxo-3-(4-piperazin-1-yl-phenyl)-propenyl]-pyridin-2-yl}-acrylamide]
13 | 52.66 | 93.48 |  | CN1CCN(Cc2ccccc2C(=O)/C=C/c2ccc(/C=C/C(=O)NO)nc2)CC1 [Example 47, (E)-N-Hydroxy-3-(5-{(E)-3-[2-(4-methyl-piperazin-1-ylmethyl)-phenyl]-3-oxo-propenyl}-pyridin-2-yl)-acrylamide]
14 | 11.17 | 20.86 | 0.283 | O=C(/C=C/c1ccc(/C=C/C(=O)c2ccc(N3CCOCC3)cc2)c(F)c1)NO [Ref (*) 29, reference compound]
15 | 2.76 | 8.66 | 0.238 | O=C(/C=C/c1ccc(/C=C/C(=O)c2ccc(N3CCOCC3)cc2)cc1)NO [Ref (*) 41, reference compound]
16 | 2.8 | 35.28 |  | COc1cc(C(=O)/C=C/c2ccc(/C=C/C(=O)NO)cc2)ccc1CN1CCOCC1 [Ref (*) 48, reference compound]
17 | 9.12 | 33.29 |  | CN1CCN(c2ccc(C(=O)/C=C/c3ccc(/C=C/C(=O)NO)cc3)cc2)CC1 [Ref (*) 59, reference compound]
18 | 5.65 | 13.74 |  | O=C(/C=C/c1ccc(/C=C/C(=O)c2ccccc2)cn1)NO [Ref (*) 69, reference compound]
19 | 6.04 | 21.82 | 0.0675 | O=C(/C=C/c1ccc(/C=C/C(=O)c2cccs2)cn1)NO [Ref (*) 71, reference compound]
20 | 10.83 | 15.32 | 0.02 | O=C(/C=C/c1ccc(/C=C/C(=O)c2ccc(F)c(F)c2)cn1)NO [Ref (*) 72, reference compound]
